Minimal effective concentration data for 38 compounds are collected here from patent publication US7317028B2, “Cell differentiation inducer” (Schering Aktiengesellschaft, priority 1996, dated 2008).

Structures can show the parent of a compound that is named as a salt. Where two headings read alike, the source gives them in different places.

This test has as its system A2780 cells. In words: Test for induction of differentiation in A2780 cells (ALP activity, ALPmin). It counts as cell-based, human. Here is the method: Increase of alkaline phosphatase (ALP) activity is known as an indicator for differentiation of human colon cancer cells. […] Thus, differentiation inducing action was evaluated using ALP activity as an indicator.
To each well of a 96-well plate was placed 0.1 mL of A2780 cells (15,000 cells/well) and the next day was added 0.1 mL of a sequential dilute of test solution with the medium. […] The reaction was quenched with 0.05 mL/well of 3N sodium hydroxide aq. For each well, an absorbance at 405 nm was measured to determine the minimum concentration of the drug inducing increase of ALP activity (ALPmin).

[1] abbreviates: Homo sapiens, 72 h, A2780 cells, 3 days incubation, minimum concentration of the drug inducing increase of ALP activity.
Where [2] appears, read: A2780 cells, 3 days incubation, minimum concentration of the drug inducing increase of ALP activity.

A word on the minimal effective concentration: it is the smallest amount tested that counted as effective. Read a low minimal effective concentration as an effect from little substance. As for `Nc1ccccc1NC(=O)c1ccc(-n2cc(COc3ccccc3)oc2=O)cc1` [Example 136, N-(2-aminophenyl)-4-(5-phenoxymethyl-1,3-oxazolin-2-on-3-yl)benzamide], under setting [1], the minimal effective concentration is 1 µM.
Same read-out and setting: with `Nc1ccccc1NC(=O)c1ccc(COC(=O)NCCCn2ccnc2)cc1` [Example 99, N-(2-aminophenyl)-4-[3-(imidazol-1-yl)propylaminocarbonyloxymethyl]benzamide] the figure was 3 µM.
`Nc1ccccc1NC(=O)c1ccc(CNC(=O)OC2CN3CCC2CC3)cc1` (centres unmarked) [Example 72, N-(2-aminophenyl)-4-[N-(quinuclidin-3-yl)oxycarbonylaminomethyl]benzamide] came in with a minimal effective concentration under setting [2] of 10 µM.
On to `COC(=O)c1ccc(C(=O)NCc2ccc(C(=O)Nc3ccccc3N)cc2)cc1` [Example 11, N-(2-aminophenyl)-4-[N-(4-methoxycarboxybenzoyl)aminomethyl]benzamide], for which, under setting [2], the minimal effective concentration is given as 1 µM.
Same read-out and setting: as for `Nc1ccccc1NC(=O)c1ccc(CN2CCN(Cc3cccnc3)C2=O)cc1` [Example 145, N-(2-aminophenyl)-4-[3-(pyridin-3-yl)methylimidazolin-2-on-1-yl]methylbenzamide], the figure is 3 µM.
In turn, `Nc1ccccc1NC(=O)c1ccc(NC(=O)Cc2ccc(Cl)cc2)cc1` [Example 102, N-(2-aminophenyl)-4-[(4-chlorophenylacetyl)amino]benzamide] returned a minimal effective concentration under setting [1] of 3 µM.
Still for that read-out and setting: with `Nc1ccccc1NC(=O)c1ccc(CNC(=O)c2ccc(C(=O)O)cc2)cc1` [Example 10, N-(2-aminophenyl)-4-[N-(4-carboxybenzoyl)aminomethyl]benzamide hydrochloride] the figure was 3 µM.
On the same count and under the same terms, with `Nc1ccccc1NC(=O)c1ccc(CN(CCCc2cccnc2)C(=O)OCc2cccnc2)cc1` [Example 80, N-(2-aminophenyl)-4-[N-[3-(Pyridin-3-yl)propyl]-N-(pyridin-3-yl)methoxycarbonylaminomethyl]benzamide] the figure was 0.1 µM; with `Nc1ccccc1NC(=O)c1ccc(CNC(=O)OCc2cccnc2Cl)cc1` [Example 58, N-(2-aminophenyl)-4-[N-(2-chloropyridin-3-yl)methoxycarbonylaminomethyl]benzamide], 3 µM.
On the same count and under the same terms, with `O=C(CCc1cccnc1)NCc1ccc(C(=O)Nc2ccccc2O)cc1` [Example 40, N-(2-hydroxyphenyl)-4-[N-[3-(pyridin-3-yl)propionyl]aminomethyl]benzamide] the figure was 10 µM; with `Nc1ccccc1NC(=O)c1ccc(NC(=O)OCCc2cccnc2)cc1` [Example 86, N-(2-aminophenyl)-4-[N-[2-(pyridin-3-yl)ethoxycarbonyl]amino]benzamide], 0.3 µM.
In turn, `CN(Cc1ccc(C(=O)Nc2ccccc2N)cc1)C(=O)COc1cccnc1` [Example 44, N-(2-aminophenyl)-4-[N-methyl-N-(pyridin-3-yl)oxyacetyl]aminomethylbenzamide] registered a minimal effective concentration of 0.01 µM.
Under setting [1], `COc1ccc(CC(=O)Nc2ccc(C(=O)Nc3ccccc3N)cc2)cc1` [Example 107, N-(2-aminophenyl)-4-[(4-methoxyphenylacetyl)amino]benzamide] came in with a minimal effective concentration of 1 µM.
The compound `CN1CCN(COC(=O)NCc2ccc(C(=O)Nc3ccccc3N)cc2)CC1` [Example 66, N-(2-aminophenyl)-4-[N-(4-methylpiperazin-1-yl)methoxycarbonylaminomethyl]benzamide] yielded a minimal effective concentration under setting [1] of 3 µM.
`Nc1ccccc1NC(=O)c1ccc(CNC(=O)Nc2cccnc2)cc1` [Example 91, N-(2-aminophenyl)-4-[N′-(pyridin-3-yl)ureidomethyl]benzamide] yielded a minimal effective concentration under setting [2] of 0.1 µM.
Under setting [1], `Nc1ccccc1NC(=O)c1ccc(CN(CCCc2cccnc2)C(=O)COc2cccnc2)cc1` [Example 43, N-(2-aminophenyl)-4-[N-(pyridin-3-yl)oxyacetyl-N-[3-(pyridin-3-yl)propyl]aminomethyl]benzamide] displayed a minimal effective concentration of 3 µM.
`Nc1ccccc1NC(=O)c1ccc(CN(Cc2cccnc2)C(=O)OCc2cccnc2)cc1` [Example 79, N-(2-aminophenyl)-4-[N-(pyridin-3-yl)methyl-N-(pyridin-3-yl)methoxycarbonylaminomethyl]benzamide] yielded a minimal effective concentration under setting [1] of 0.1 µM.
Same read-out and setting: as for `CC(=O)N(CCc1ccc(C(=O)Nc2ccccc2N)cc1)c1cccnc1` [Example 96, N-(2-aminophenyl)-4-[2-[N-(pyridin-3-yl)-acetylamino]ethyl]benzamide], the figure is 10 µM.
As to `Cc1ccc(C(=O)NCc2ccc(C(=O)Nc3ccccc3N)cc2)cc1` [Example 4, N-(2-aminophenyl)-4-[N-(4-methylbenzoyl)aminomethyl]benzamide hydrochloride], the minimal effective concentration under setting [1] was determined as 1 µM.
Under setting [2], `O=C(NCc1ccc(C(=O)Nc2ccccc2O)cc1)NCc1cccnc1` [Example 95, N-(2-hydroxyphenyl)-4-[N′-(pyridin-3-yl)methylureidomethyl]benzamide] displayed a minimal effective concentration of 3 µM.
`Nc1ccccc1NC(=O)c1ccc(NC(=O)Cc2ccc(C(F)(F)F)cc2)cc1` [Example 109, N-(2-aminophenyl)-4-[(4-trifluoromethylphenylacetyl)amino]benzamide]: the minimal effective concentration under setting [1] was 1 µM.
Same read-out and setting: as for `Nc1cccc(NC(=O)c2ccc(CNC(=O)OCc3cccnc3)cc2)c1` [Comp. Ex. 1, N-(3-aminophenyl)-4-[N-(pyridin-3-yl)methoxycarbonylaminomethyl]benzamide, reference compound], the figure is more than 100 µM; as for `O=C(COc1cccnc1)NCc1ccc(C(=O)Nc2ccccc2O)cc1` [Example 41, N-(2-hydroxyphenyl)-4-[N-(pyridin-3-yl)oxyacetylaminomethyl]benzamide], 0.3 µM; as for `Nc1ccccc1NC(=O)c1ccc(-n2cc(COc3ccccn3)oc2=O)cc1` [Example 143, N-(2-aminophenyl)-4-[5-(pyridin-2-yl)oxymethyl-1,3-oxazolin-2-on-3-yl]benzamide], 3 µM.
Consider `Nc1ccc(F)cc1NC(=O)c1ccc(CNC(=O)NCc2cccnc2)cc1` [Example 94, N-(2-amino-5-fluorophenyl)-4-[N′-(pyridin-3-yl)methylureidomethyl]benzamide], for which the minimal effective concentration under setting [2] came out at 3 µM.
Under setting [1], `Nc1ccccc1NC(=O)c1ccc(NC(=O)Cc2ccccn2)cc1` [Example 110, N-(2-aminophenyl)-4-[(pyridin-2-yl)acetylamino]benzamide dihydrochloride] returned a minimal effective concentration of 3 µM.
For the compound `Nc1cccc(NC(=S)NCc2ccc(C(=O)Nc3ccccc3N)cc2)c1` [Example 92, N-(2-aminophenyl)-4-[N′-(3-aminophenyl)thioureidomethyl]benzamide], under setting [2], the minimal effective concentration is 3 µM.
In turn, `Nc1nc(CC(=O)NCc2ccc(C(=O)Nc3ccccc3N)cc2)cs1` [Example 36, N-(2-aminophenyl)-4-[N-(2-aminothiazol-4-yl)acetylaminomethyl]benzamide] had a minimal effective concentration under setting [1] of 10 µM.
On to `Nc1ccccc1NC(=O)c1ccc(CNC(=O)c2c[nH]cn2)cc1` [Example 27, N-(2-aminophenyl)-4-[N-(imidazol-4-yl)carbonylaminomethyl]benzamide], for which the minimal effective concentration under setting [1] was determined as 10 µM.
`Nc1ccc(OCC(=O)Nc2ccc(C(=O)Nc3ccccc3N)cc2)cc1` [Example 135, N-(2-aminophenyl)-4-[(4-aminophenoxyacetyl)amino]benzamide] gave a minimal effective concentration under setting [1] of 3 µM.
Still for that read-out and setting: as for `Nc1ccccc1NC(=O)c1ccc(CNC(=O)CNc2cccnc2)cc1` [Example 35, N-(2-aminophenyl)-4-[N-[N-(pyridin-3-yl)aminoacetyl]aminomethyl]benzamide], the figure is 0.3 µM; as for `Nc1ccccc1NC(=O)c1ccc(NC(=O)CCc2cccnc2)cc1Cl` [Example 113, N-(2-aminophenyl)-2-chloro-4-[3-(pyridin-3-yl)propanoylamino]benzamide], 0.3 µM.
The compound `Nc1ccccc1NC(=O)c1ccc(CNC(=O)NCc2cccnc2)cc1` [Example 89, N-(2-aminophenyl)-4-[N′-(pyridin-3-ylmethyl)ureidomethyl]benzamide] showed a minimal effective concentration under setting [2] of 0.3 µM.
Take `Nc1ccccc1NC(=O)c1ccc(CNC(=S)Nc2cccc([N+](=O)[O-])c2)cc1` [Example 93, N-(2-aminophenyl)-4-[N′-(3-nitrophenyl)thioureidomethyl]benzamide]: the minimal effective concentration under setting [2] worked out at 3 µM.
Same read-out and setting: as for `Nc1ccccc1NC(=O)c1ccc(N2CC(COc3ccc([N+](=O)[O-])cc3)OC2=O)cc1` (centres unmarked) [Example 137, N-(2-aminophenyl)-4-[5-(4-nitrophenoxy)methyl-1,3-oxazolin-2-on-3-yl-yl]benzamide], the figure is 1 µM.
Under setting [1], `Nc1ccccc1NC(=O)c1ccc(CNC(=O)OCC2CCOC2)cc1` (centres unmarked) [Example 67, N-(2-aminophenyl)-4-[N-(tetrahydrofuran-3-yl)methoxycarbonylaminomethyl]benzamide] yielded a minimal effective concentration of 3 µM.
The compound `Nc1ccccc1NC(=O)c1cc2cc(NC(=O)CCc3cccnc3)ccc2o1` [Example 128, N-(2-aminophenyl)-5-[3-(pyridin-3-yl)propionamide]benzofuran-2-carboxyamide] gave a minimal effective concentration under setting [2] of 0.1 µM.
In turn, `Nc1ccccc1NC(=O)c1ccc(CNC(=O)OCc2ccccc2)cc1` [Example 49, N-(2-aminophenyl)-4-[N-(benzyloxycarbonyl)aminomethyl]benzamide] displayed a minimal effective concentration under setting [1] of 1 µM.
